Measurements reported in paper PMC11094793, “Discovery of LLC0424 as a Potent and Selective in Vivo NSD2 PROTAC Degrader” (Journal of Medicinal Chemistry, 2024).

Experiments:
[1] = test system: SEM cells; assay: Cell viability assay (CellTiter-Glo, 7 days), SEM; assay type: cell-based, human
Description: (§1) Cells were plated in 50 μL of the corresponding media in 96-well plates. A 2-fold dilution series of 2* concentrated LLC0424 was prepared in a medium with the highest concentration being 60 μM. Then 50 μL of the 2× compound-containing mixture was added to each well with 6 replicates for each concentration, reaching 1× concentration, with the highest concentration being 30 μM. The plate was incubated for 7 days. At the end point, the CellTiter-Glo assay (Promega) was then performed according to the manufacturer’s instruction to determine cell proliferation. The luminescence signal intensity of each well was acquired on an Infinite M1000Pro microplate reader and the data was analyzed using GraphPad Prism software (GraphPad Software).

[2] = molecular target: T1, GSPT1 (Homo sapiens, UniProt P15170); assay: GSPT1 level by proteomics and immunoblotting; assay type: cell-based; conditions: SI Figure S5B, SEM cells
T1 construct: endogenous in cells; host or cells: RPMI-8402, SEM, VCaP
T1 sequence (P15170 whole entry): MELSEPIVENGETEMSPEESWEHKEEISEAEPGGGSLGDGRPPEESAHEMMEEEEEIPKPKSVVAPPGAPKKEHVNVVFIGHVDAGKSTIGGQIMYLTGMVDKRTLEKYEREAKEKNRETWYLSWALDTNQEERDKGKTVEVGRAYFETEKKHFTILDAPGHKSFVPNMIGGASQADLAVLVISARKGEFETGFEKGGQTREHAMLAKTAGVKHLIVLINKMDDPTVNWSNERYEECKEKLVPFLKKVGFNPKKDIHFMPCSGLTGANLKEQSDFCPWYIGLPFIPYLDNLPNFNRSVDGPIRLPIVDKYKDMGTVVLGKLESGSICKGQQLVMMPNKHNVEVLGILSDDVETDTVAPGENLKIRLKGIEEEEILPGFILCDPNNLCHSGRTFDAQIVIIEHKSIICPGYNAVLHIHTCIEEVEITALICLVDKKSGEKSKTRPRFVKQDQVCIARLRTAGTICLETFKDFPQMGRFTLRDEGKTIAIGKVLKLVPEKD
Description: We conducted a global proteomic assay using tandem mass tags (TMT) labeled mass-spectrometry to unbiasedly quantify the protein change upon LLC0424 treatment in VCaP and RPMI-8402 cells. […] We further used SEM cell line to cross-validate the selectivity of LLC0424 for NSD2 over NSD1 and NSD3 as well as CRBN neo-substrates IKZF1, IKZF3, GSPT1, and CK-1α using immunoblotting. […] When we increased the treatment time of LLC0424 in SEM cells, we observed mild decrease of GSPT1 from 12 h (SI, Figure S3F).
NSD2 is the primary methyltransferase that transfers dimethyl to H3K36 in ALL with NSD2 gain-of-function mutation. Therefore, the effects of LLC0424 on H3K36me2 was evaluated in SEM and RPMI-8402 cells. […] Meanwhile, LLC0424 treatment also led to downregulation of H3K36Me2 in RPMI-8402 cells within 24 h (Figure 6B). […] We also conducted a colony formation assay to evaluate the effect of LLC0424 on the stem cell-like property of the leukemia cells. […] As LLC0424 leads to strong degradation of both NSD2-L and NSD2-S, the phenotypic changes upon LLC0424 treatment result from complete inactivation of NSD2 activity, including adaptor-like function of NSD2-S and SET-domain dependent enzymatic function of NSD2-L. The specific contributions of NSD2 isoforms warrant future investigation. To characterize the genes affected by LLC0424 treatment, we performed global transcriptome analysis of SEM cells treated by DMSO, LLC0424, or LLC0424N. LLC0424 treatment led to significant changes in the transcriptome of SEM cells with over 326 differentially expressed genes. […] We further explored the contribution of NSD2 loss to the phenotype we observed in SEM cells. […] Still, whether and how LLC0424’s modest effect on GSPT1 contributes to the cytotoxic effects remains to be further explored. We also designed and synthesized the negative control LLC0877 bearing the warhead that is devoid of NSD2 binding (SI, Figure S5A).
After treatment, the cultured cells were collected and rinsed with phosphate-buffered saline (PBS) in room temperature. The cells were treated with RIPA buffers (ThermoFisher Scientific) supplemented with Halt Protease and Phosphatase Inhibitor Cocktail (ThermoFisher Scientific). After sonication and centrifugation, the total amount of protein in the cell lysates was measured by Pierce Bovine Serum Albumin Standard Pre-Diluted Set (ThermoFisher Scientific). After mixed with LDS-sample buffer (Invitrogen) supplemented with Sample Reducing Agent (Invitrogen) and heated in 70 °C for 10 min, equal amount of protein was loaded into NuPAGE 4–12%, Bis-Tris Protein Gel (ThermoFisher Scientific) or NuPAGE 3–8%, Tris-Acetate Protein Gel (ThermoFisher Scientific), and blotted with primary antibodies. […]

[3] = test system: RPMI-8402 cells; assay: Cell viability assay (CellTiter-Glo, 7 days), RPMI-8402; assay type: cell-based, human
Description: as §1

[4] = molecular target: T2, NSD2 (both long and short isoforms) (Homo sapiens, UniProt O96028); assay: NSD2 degradation by immunoblotting in ALL cell lines RPMI-8402 and SEM (NSD2 E1099K); assay type: cell-based
T2 sequence (O96028 211-350 limits assumed): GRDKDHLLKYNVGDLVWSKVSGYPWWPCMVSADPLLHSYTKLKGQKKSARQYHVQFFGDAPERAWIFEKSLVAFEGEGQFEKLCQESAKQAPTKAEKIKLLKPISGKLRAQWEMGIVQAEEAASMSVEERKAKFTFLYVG
Description: As previous studies have shown that ALL cell lines with NSD2 gain-of-function mutation are more dependent on NSD2 regarding H3K36me2 level and cell proliferation,[7],[8] we further characterized LLC0424 in ALL cell lines with NSD2 E1099K gain-of-function mutation (RPMI-8402 and SEM). We first treated these cells with LLC0424 with different concentrations for 24 h. […] In addition, we compared the degradation efficiency of LLC0424 with the two previously published NSD2 degraders 6 and 7 at different concentrations and time points.
After treatment, the cultured cells were collected and rinsed with phosphate-buffered saline (PBS) in room temperature. The cells were treated with RIPA buffers (ThermoFisher Scientific) supplemented with Halt Protease and Phosphatase Inhibitor Cocktail (ThermoFisher Scientific). After sonication and centrifugation, the total amount of protein in the cell lysates was measured by Pierce Bovine Serum Albumin Standard Pre-Diluted Set (ThermoFisher Scientific). After mixed with LDS-sample buffer (Invitrogen) supplemented with Sample Reducing Agent (Invitrogen) and heated in 70 °C for 10 min, equal amount of protein was loaded into NuPAGE 4–12%, Bis-Tris Protein Gel (ThermoFisher Scientific) or NuPAGE 3–8%, Tris-Acetate Protein Gel (ThermoFisher Scientific), and blotted with primary antibodies. After incubated with HRP-conjugated secondary antibodies, the membranes were developed with ECL Prime Western Blotting Detection Reagent (cytiva) and imaged on Odyssey Fc Imager (LiCOR Biosciences).

[5] = molecular target: T3, NSD2 (Homo sapiens, UniProt O96028); assay: Validation of mechanism of action: pretreatment rescue of LLC0424-mediated NSD2 degradation; assay type: cell-based; conditions: RPMI-8402 cells; 2 μM LLC0424
T3 sequence (O96028 211-350 limits assumed): T2 sequence (O96028 211-350 limits assumed)

[6] = molecular target: T4, NSD2 (Homo sapiens, UniProt O96028); assay: Compound screening: NSD2 degradation by immunoblotting in VCaP cells; conditions: 2 μM, VCaP cells, 24 h, immunoblotting
T4 sequence (O96028 1-1365): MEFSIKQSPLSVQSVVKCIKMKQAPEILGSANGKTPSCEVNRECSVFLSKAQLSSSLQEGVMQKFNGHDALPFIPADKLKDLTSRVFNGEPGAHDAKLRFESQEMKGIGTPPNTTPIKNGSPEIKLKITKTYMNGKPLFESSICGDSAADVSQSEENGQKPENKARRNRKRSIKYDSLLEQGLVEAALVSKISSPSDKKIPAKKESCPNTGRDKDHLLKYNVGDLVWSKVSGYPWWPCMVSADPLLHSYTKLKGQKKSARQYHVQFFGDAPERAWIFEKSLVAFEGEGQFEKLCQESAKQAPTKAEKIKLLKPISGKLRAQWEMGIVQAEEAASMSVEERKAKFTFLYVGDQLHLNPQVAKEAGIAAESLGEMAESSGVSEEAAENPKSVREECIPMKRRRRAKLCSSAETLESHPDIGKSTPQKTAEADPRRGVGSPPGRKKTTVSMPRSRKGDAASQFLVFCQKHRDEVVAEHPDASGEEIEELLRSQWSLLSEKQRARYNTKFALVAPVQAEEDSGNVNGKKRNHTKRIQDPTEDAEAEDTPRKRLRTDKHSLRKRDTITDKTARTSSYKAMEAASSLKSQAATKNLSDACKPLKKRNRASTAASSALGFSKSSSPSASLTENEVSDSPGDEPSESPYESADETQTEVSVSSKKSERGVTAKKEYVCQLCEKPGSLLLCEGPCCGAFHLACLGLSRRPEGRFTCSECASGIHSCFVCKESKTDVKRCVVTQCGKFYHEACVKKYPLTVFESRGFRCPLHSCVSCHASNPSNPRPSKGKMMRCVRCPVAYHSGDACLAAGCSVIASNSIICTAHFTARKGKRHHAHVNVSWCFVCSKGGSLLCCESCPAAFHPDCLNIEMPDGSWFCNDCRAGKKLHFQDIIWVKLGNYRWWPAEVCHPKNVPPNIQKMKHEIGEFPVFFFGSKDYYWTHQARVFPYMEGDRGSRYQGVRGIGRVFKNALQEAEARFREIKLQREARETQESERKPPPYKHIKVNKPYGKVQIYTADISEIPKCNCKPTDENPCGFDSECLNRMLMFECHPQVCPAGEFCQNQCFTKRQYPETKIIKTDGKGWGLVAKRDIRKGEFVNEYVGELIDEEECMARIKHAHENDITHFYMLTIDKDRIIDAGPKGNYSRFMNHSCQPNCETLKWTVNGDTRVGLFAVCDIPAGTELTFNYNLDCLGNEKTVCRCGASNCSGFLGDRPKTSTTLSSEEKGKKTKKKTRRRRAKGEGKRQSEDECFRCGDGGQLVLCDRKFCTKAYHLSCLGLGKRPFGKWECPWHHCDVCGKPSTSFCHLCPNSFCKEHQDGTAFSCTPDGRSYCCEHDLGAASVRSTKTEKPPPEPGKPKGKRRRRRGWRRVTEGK
Description: After treatment, the cultured cells were collected and rinsed with phosphate-buffered saline (PBS) in room temperature. The cells were treated with RIPA buffers (ThermoFisher Scientific) supplemented with Halt Protease and Phosphatase Inhibitor Cocktail (ThermoFisher Scientific). After sonication and centrifugation, the total amount of protein in the cell lysates was measured by Pierce Bovine Serum Albumin Standard Pre-Diluted Set (ThermoFisher Scientific). […] After incubated with HRP-conjugated secondary antibodies, the membranes were developed with ECL Prime Western Blotting Detection Reagent (cytiva) and imaged on Odyssey Fc Imager (LiCOR Biosciences).
Western blot was then performed as previously described to detect NSD2 degradation.

## CC(C)N(Cc1ccc(C(=O)Nc2ccc(C(=O)NC3CCN(c4ccc5c(c4)C(=O)N(C4CCC(=O)NC4=O)C5=O)CC3)cc2)cc1)C(=O)c1ccc2c(c1)OCC(=O)N2 (centres unmarked) [LLC0877]
[1]
  IC50 (growth, cell viability): lower IC50 values
[2]
  GSPT1 degradation by negative control: fast and strong degradation of GSPT1
[3]
  IC50 (growth, cell viability): lower IC50 values
[4]; SI Figure S5B, SEM cells
  NSD2 degradation by negative control: did not degrade NSD2

## CC(C)C[C@H](NC(=O)[C@H](Cc1ccccc1)NC(=O)c1cnccn1)B(O)O [bortezomib]
[5]
  effect of pretreatment on NSD2 protein reduction induced by LLC0424: rescued the NSD2 protein reduction induced by LLC0424

## O=C(CNc1cccc2c1C(=O)N(C1CCC(=O)NC1=O)C2=O)NCCCOc1ccc(NC(=O)c2ccc(CN(C(=O)c3ccc4c(c3)OCC(=O)N4)C3CC3)cc2)nc1 (centres unmarked) [compound 6, reference compound]
[6]
  % Degradation: 11%
[4]; RPMI-8402 and SEM cells, 0.5 and 2 μM for 24 h or 2 μM for 12 and 24 h
  NSD2 degradation, comparison of degraders: much less active

## NS(=O)(=O)OC[C@@H]1C[C@@H](n2ccc3c(N[C@H]4CCc5ccccc54)ncnc32)C[C@@H]1O [MLN4924]
[5]
  effect of pretreatment on NSD2 protein reduction induced by LLC0424: rescued the NSD2 protein reduction induced by LLC0424
